Source: paper PMC4505863 (ACS Chemical Neuroscience, 2014)
Where two headings read alike, the source gives them in different places.

How the values were obtained:
[1] = molecular target: T1, 5-HT2A receptor (Homo sapiens, UniProt P28223); experiment: h5-HT2A affinity, antagonist radioligand [3H]ketanserin; assay type: binding
[2] = molecular target: T1, 5-HT2A receptor; experiment: h5-HT2A affinity, agonist radioligand [125I]DOI; assay type: binding
[3] = molecular target: T2, human 5-HT2C receptor (Homo sapiens, UniProt P28335); experiment: h5-HT2C affinity, antagonist radioligand [3H]mesulergine; assay type: binding
T2 sequence (P28335 33-458): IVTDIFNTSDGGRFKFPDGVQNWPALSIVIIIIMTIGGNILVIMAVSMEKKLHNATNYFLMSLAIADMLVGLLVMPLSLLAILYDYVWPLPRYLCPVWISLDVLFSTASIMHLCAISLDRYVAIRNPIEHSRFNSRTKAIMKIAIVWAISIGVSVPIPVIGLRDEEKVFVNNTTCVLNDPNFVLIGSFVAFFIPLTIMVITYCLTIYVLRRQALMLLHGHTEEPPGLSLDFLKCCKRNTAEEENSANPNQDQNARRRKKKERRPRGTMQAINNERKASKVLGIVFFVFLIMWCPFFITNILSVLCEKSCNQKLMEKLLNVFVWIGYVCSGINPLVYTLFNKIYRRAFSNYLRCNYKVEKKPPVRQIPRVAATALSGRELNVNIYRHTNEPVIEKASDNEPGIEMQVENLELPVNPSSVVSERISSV

[4] = molecular target: T2, human 5-HT2C receptor; experiment: h5-HT2C affinity, agonist radioligand [125I]DOI; assay type: binding
[5] = molecular target: 5-HT2B (Homo sapiens, UniProt P41595); experiment: PDSP screening affinity 5-HT2B; assay type: binding
[6] = molecular target: T3, 5-HT1A (Homo sapiens, UniProt P08908); experiment: PDSP screening affinity 5-HT1A; assay type: binding
T3 sequence (P08908 1-422): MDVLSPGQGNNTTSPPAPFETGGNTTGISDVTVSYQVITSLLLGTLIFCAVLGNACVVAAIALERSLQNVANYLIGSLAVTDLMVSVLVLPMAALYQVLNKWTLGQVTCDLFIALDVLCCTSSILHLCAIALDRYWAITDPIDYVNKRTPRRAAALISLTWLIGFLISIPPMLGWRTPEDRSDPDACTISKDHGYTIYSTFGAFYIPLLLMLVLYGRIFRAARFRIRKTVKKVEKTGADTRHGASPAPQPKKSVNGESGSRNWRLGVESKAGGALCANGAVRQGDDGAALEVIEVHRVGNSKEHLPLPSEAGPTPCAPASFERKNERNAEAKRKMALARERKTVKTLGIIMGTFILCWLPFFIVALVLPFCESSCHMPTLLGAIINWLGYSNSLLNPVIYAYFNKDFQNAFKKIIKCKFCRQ

[7] = molecular target: 5-HT1B (Homo sapiens, UniProt P28222); experiment: PDSP screening affinity 5-HT1B; assay type: binding
[8] = molecular target: 5-HT1D (Homo sapiens, UniProt P28221); experiment: PDSP screening affinity 5-HT1D; assay type: binding
[9] = molecular target: 5-ht1e (Homo sapiens, UniProt P28566); experiment: PDSP screening affinity 5-ht1e; assay type: binding
[10] = molecular target: T4, 5-HT3 (Homo sapiens, UniProt P46098); experiment: PDSP screening affinity 5-HT3; assay type: binding
T4 sequence (P46098 24-478): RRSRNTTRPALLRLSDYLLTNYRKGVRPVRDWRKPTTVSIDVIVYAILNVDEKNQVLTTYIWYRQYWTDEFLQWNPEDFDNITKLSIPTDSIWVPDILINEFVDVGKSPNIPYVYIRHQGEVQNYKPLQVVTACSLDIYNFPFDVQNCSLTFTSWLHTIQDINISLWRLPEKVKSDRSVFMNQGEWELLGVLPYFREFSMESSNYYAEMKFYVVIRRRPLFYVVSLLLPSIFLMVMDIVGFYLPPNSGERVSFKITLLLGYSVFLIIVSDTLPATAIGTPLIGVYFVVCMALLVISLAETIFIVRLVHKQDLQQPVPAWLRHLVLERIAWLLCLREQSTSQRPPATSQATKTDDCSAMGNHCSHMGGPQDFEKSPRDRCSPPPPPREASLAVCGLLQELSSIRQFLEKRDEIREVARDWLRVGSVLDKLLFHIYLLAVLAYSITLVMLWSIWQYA

[11] = molecular target: 5-ht5a (Homo sapiens, UniProt P47898); experiment: PDSP screening affinity 5-ht5a; assay type: binding
[12] = molecular target: 5-HT6 (Homo sapiens, UniProt P50406); experiment: PDSP screening affinity 5-HT6; assay type: binding
[13] = molecular target: 5-HT7 (Homo sapiens, UniProt P34969); experiment: PDSP screening affinity 5-HT7; assay type: binding
[14] = molecular target: r5-HT2A (Rattus norvegicus, UniProt P14842); experiment: Ca2+ mobilization assay; assay type: cell-based
[15] = molecular target: h5-HT2A (Homo sapiens, UniProt P28223); experiment: Ca2+ mobilization assay; assay type: cell-based
[16] = molecular target: h5-HT2B (Homo sapiens, UniProt P41595); experiment: Ca2+ mobilization assay; assay type: cell-based
[17] = molecular target: T5, r5-HT2C (Rattus norvegicus, UniProt P08909); experiment: Ca2+ mobilization assay; assay type: cell-based
T5 sequence (P08909 33-460): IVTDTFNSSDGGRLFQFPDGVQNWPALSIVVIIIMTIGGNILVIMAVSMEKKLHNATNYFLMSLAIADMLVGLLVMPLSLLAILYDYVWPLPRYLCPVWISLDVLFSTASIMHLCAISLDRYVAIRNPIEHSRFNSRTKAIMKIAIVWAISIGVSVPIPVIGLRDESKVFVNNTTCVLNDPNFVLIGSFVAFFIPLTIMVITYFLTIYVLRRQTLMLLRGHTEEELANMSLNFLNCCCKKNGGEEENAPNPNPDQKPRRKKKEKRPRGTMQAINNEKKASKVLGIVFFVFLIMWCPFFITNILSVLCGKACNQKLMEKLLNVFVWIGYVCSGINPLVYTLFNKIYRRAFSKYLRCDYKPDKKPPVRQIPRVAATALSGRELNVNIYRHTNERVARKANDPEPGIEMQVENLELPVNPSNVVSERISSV

[18] = molecular target: T6, h5-HT2C (Homo sapiens, UniProt P28335); experiment: Ca2+ mobilization assay; assay type: cell-based
T6 sequence (P28335 33-458): T2 sequence (P28335 33-458)

[19] = system: Male C57BL/6J mice; experiment: Mouse head twitch response
[20] = [125I]DOI, n = 3–5 displacement curves
[21] = percentage of the maximum response to 5-HT

Sequence of 5-ht5a (P47898 whole entry): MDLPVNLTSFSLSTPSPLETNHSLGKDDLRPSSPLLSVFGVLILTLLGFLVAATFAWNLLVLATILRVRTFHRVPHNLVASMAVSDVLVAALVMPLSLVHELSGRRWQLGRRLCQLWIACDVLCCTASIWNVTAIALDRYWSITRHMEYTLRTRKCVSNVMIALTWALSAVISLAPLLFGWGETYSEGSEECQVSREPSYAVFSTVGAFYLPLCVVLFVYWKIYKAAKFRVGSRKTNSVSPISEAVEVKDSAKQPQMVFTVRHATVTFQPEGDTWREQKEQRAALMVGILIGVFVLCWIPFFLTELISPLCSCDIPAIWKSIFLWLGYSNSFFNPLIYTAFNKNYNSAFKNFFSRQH
Sequence of r5-HT2A (P14842 whole entry): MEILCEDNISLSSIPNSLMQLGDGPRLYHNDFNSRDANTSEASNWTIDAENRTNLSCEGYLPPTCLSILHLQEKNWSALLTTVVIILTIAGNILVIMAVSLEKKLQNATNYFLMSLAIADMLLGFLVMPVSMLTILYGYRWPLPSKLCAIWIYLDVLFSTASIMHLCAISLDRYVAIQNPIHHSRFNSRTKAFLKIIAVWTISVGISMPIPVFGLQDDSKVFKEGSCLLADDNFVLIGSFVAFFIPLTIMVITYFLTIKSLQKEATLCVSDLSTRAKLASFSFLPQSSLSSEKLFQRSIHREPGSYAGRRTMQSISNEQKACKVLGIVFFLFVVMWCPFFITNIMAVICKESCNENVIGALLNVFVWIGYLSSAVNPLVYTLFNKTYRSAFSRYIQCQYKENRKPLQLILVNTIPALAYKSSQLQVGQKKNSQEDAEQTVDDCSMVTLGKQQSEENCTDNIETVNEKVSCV
Sequence of 5-ht1e (P28566 whole entry): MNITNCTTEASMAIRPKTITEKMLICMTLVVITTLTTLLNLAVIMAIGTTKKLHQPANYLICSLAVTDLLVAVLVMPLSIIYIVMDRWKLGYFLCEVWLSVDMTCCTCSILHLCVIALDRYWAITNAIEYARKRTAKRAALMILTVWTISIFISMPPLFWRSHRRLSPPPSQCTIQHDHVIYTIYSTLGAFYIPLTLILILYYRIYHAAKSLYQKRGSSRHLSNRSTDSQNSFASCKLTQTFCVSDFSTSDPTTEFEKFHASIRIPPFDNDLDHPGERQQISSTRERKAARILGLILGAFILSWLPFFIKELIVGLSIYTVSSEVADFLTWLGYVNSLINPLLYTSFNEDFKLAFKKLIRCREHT
Sequence of 5-HT1B (P28222 whole entry): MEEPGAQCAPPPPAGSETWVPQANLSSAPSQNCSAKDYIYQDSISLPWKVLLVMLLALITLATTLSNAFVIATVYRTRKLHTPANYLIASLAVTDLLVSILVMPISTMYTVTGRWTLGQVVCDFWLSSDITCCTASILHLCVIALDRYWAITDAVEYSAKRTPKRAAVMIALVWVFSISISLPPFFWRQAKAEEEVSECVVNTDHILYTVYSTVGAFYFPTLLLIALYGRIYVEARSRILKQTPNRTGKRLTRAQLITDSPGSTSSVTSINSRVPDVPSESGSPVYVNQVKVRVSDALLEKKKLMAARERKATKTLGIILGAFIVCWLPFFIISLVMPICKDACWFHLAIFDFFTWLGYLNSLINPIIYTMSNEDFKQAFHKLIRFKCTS
Sequence of 5-HT6 (P50406 whole entry): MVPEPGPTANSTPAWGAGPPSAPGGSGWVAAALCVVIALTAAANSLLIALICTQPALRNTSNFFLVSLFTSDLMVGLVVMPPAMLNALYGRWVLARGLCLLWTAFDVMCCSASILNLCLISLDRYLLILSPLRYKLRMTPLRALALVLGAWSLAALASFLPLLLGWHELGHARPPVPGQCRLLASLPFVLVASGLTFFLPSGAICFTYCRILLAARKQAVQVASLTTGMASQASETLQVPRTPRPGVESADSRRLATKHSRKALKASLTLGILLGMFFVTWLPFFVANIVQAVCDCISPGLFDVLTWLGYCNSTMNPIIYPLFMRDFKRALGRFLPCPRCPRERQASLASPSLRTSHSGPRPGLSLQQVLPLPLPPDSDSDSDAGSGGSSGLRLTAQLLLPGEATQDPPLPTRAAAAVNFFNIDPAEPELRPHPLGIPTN
Sequence of 5-HT7 (P34969 whole entry): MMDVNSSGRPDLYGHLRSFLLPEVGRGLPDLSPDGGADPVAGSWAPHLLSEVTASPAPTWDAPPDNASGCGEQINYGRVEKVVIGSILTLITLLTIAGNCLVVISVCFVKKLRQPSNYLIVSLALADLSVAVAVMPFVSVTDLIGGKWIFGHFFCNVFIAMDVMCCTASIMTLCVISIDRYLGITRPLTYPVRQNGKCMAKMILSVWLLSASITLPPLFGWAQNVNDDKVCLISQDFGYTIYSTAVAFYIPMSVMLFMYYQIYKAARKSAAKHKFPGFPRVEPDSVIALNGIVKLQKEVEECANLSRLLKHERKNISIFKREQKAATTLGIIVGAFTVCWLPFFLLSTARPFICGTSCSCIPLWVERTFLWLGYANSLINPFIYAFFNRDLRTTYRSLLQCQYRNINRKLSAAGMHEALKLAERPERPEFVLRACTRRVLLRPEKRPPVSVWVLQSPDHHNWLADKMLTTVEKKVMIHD
Sequence of 5-HT2B (P41595 whole entry): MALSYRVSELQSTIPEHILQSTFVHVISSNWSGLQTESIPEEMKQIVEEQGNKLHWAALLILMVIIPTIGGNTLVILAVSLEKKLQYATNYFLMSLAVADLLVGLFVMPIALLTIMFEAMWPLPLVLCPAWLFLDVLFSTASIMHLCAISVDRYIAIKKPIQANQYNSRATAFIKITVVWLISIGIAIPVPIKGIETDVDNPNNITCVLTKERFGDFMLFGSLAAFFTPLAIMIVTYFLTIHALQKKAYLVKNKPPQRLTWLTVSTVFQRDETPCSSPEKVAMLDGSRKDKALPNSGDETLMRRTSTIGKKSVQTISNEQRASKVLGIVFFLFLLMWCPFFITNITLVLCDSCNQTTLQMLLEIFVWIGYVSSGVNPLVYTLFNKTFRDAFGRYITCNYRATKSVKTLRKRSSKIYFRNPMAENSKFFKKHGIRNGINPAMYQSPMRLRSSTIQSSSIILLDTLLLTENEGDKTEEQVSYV
Sequence of h5-HT2B (P41595 whole entry): as above
T1 sequence (P28223 whole entry): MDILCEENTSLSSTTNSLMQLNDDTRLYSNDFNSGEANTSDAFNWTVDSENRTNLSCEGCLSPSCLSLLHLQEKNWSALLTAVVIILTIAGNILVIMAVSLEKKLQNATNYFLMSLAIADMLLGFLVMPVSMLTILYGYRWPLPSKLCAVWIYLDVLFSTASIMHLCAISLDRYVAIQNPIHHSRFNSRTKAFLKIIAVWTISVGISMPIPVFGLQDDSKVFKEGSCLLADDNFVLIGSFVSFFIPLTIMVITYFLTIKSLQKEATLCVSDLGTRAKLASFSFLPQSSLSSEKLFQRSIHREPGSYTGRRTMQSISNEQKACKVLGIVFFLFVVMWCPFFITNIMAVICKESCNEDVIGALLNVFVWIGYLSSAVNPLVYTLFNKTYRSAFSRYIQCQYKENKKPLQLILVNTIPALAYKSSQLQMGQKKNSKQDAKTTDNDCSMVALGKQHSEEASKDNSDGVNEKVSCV
Sequence of h5-HT2A (P28223 whole entry): as above
Sequence of 5-HT1D (P28221 whole entry): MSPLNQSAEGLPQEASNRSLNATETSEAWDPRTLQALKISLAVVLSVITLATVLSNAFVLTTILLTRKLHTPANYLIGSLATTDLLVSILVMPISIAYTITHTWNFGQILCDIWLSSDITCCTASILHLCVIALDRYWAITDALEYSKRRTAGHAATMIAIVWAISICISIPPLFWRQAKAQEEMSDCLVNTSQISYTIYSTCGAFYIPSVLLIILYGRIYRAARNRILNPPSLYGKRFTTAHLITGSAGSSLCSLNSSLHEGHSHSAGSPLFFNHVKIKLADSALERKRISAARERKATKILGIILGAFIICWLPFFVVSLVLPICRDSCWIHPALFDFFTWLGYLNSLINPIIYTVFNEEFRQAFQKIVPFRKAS

COc1ccc(CNCCc2c[nH]c3ccc(OC)cc23)cc1 [Compound 5c, N-(4-Methoxybenzyl)-2-(5-methoxy-1H-indol-3-yl)ethan-1-amine] was tested, and the Ki [1] was 69.2 nM, the Ki [2] was 10.5 nM and the Ki [3] was 126 nM. It also gave a Ki [4] of 14.1 nM, a Ki ([5]; 5-HT2B affinity) of 33 nM and a Ki ([5]; 5-HT2B pKi ± SEM) of 32.4 nM. For the same compound, the Ki ([6]; 5-HT1A affinity) was 76 nM, the Ki ([7]; 5-HT1B affinity) was 1060 nM and the Ki [8] was 161 nM. The Ki [9] was greater than 10000 nM, the Ki [10] was greater than 10000 nM and the Ki ([11]; 5-ht5a affinity) was 2390 nM. It also gave a Ki ([12]; 5-HT6 affinity) of 353 nM, a Ki ([13]; 5-HT7 affinity) of 37 nM and a Ki ([13]; 5-HT7 pKi ± SEM) of 36.3 nM. It also gave an EC50 ([14]; r5-HT2A EC50, Ca2+ mobilization) of 190 nM, an Emax ([14]; read-out: r5-HT2A Emax, percentage of the maximum response to 5-HT) of 75 ± 1.3% and an EC50 [15] of 42 nM. For the same compound, the Emax ([15]; HEK293, read-out: h5-HT2A Emax, percentage of the maximum response to 5-HT) was 84.1 ± 1.3%, the Emax ([16]; HEK293, read-out: h5-HT2B Emax) was 81 ± 1% and the EC50 ([16]; h5-HT2B pEC50 ± SEM, Ca2+ mobilization, NA = not active, Emax ≤ 15%) was 22.9 nM. The EC50 ([17]; r5-HT2C pEC50 ± SEM, Ca2+ mobilization) was 18.6 nM, the Emax ([17]; read-out: r5-HT2C Emax) was 102 ± 2% and the Emax ([18]; HEK293, read-out: h5HT2C Emax) was 112 ± 5%. The EC50 ([18]; h5HT2C EC50, Ca2+ mobilization) was 75.1 nM and the “activity in the HTR assay (active / inactive)” value ([19]; SC, doses up to 30 mg/kg) was “None of the phenethylamines or tryptamines with 4-substituted N-benzyl groups, 4b, 4e, 5c, or 5f, was active”.

For COc1ccc2[nH]cc(CCNCc3cccc(C)c3)c2c1 [Compound 5j, N-(3-Methylbenzyl)-2-(5-methoxy-1H-indol-3-yl)ethan-1-amine], the “h5-HT2A pKi ± SEM” value ([1]; [3H]ketanserin, n = 3–5 displacement curves) was 8.32 ± 0.17, the Ki ([1]; read-out: h5-HT2A Ki, [3H]ketanserin) was 4.79 nM and the “h5-HT2A pKi ± SEM” value [2, 20] was 8.93 ± 0.11. For the same compound, the “selectivity h5-HT2A versus h5-HT2C, affinity at the [125I]-DOI-labeled receptors” value ([2]; agonist-labeled receptors) was less than 3 fold, the Ki ([2]; read-out: h5-HT2A Ki, [125I]DOI) was 1.17 nM and the “h5-HT2C pKi ± SEM” value ([3]; [3H]mesulergine, n = 3–5 displacement curves) was 7.65 ± 0.03. The Ki ([3]; read-out: h5-HT2C Ki, [3H]mesulergine) was 22.4 nM, the “h5-HT2C pKi ± SEM” value [4, 20] was 8.47 ± 0.08 and the Ki ([4]; read-out: h5-HT2C Ki, [125I]DOI) was 3.39 nM. The “5-HT2B pKi ± SEM” value [5] was 8.71 ± 0.03, the Ki ([5]; read-out: 5-HT2B affinity) was 1.9 nM and the “5-HT1A pKi ± SEM” value [6] was 6.57 ± 0.04. The Ki ([6]; read-out: 5-HT1A affinity) was 271 nM, the “5-HT1B pKi ± SEM” value [7] was 5.37 ± 0.07 and the Ki ([7]; read-out: 5-HT1B affinity) was 4240 nM. The “5-HT1D pKi ± SEM” value ([8]; PDSP screening, human) was 6.55 ± 0.06, the Ki ([8]; read-out: 5-HT1D affinity, PDSP screening, human) was 283 nM and the “5-ht1e pKi ± SEM” value ([9]; PDSP screening, human) was 5.41 ± 0.05. The Ki ([9]; read-out: 5-ht1e affinity, PDSP screening, human) was 3880 nM, the Ki ([10]; read-out: 5-HT3 affinity, PDSP screening, human) was greater than 10000 nM and the “5-ht5a pKi ± SEM” value [11] was 5.41 ± 0.06. For the same compound, the Ki ([11]; read-out: 5-ht5a affinity) was 3850 nM, the “5-HT6 pKi ± SEM” value [12] was 7.21 ± 0.03 and the Ki ([12]; read-out: 5-HT6 affinity) was 62 nM. For the same compound, the “5-HT7 pKi ± SEM” value [13] was 6.67 ± 0.05, the Ki ([13]; read-out: 5-HT7 affinity) was 212 nM and the “r5-HT2A pEC50 ± SEM” value ([14]; Ca2+ mobilization) was 7.6 ± 0.04. For the same compound, the “r5-HT2A Emax” value [14, 21] was 56.2 ± 0.9%, the EC50 ([14]; read-out: r5-HT2A EC50, Ca2+ mobilization) was 26 nM and the “h5-HT2A pEC50 ± SEM” value ([15]; Ca2+ mobilization) was 8.2 ± 0.04. The “selectivity in function h5-HT2A vs h5-HT2C” value ([15]; Ca2+ mobilization) was 44 fold, the “h5-HT2A Emax” value [15, 21] was 73.3 ± 1.0% and the EC50 ([15]; read-out: h5-HT2A EC50, Ca2+ mobilization) was 6.5 nM. For the same compound, the “h5-HT2B pEC50 ± SEM” value ([16]; Ca2+ mobilization, NA = not active, Emax ≤ 15%) was “NA ^b (NA, not active; Emax ≤ 15%)”, the “r5-HT2C pEC50 ± SEM” value ([17]; Ca2+ mobilization) was 6.72 ± 0.04 and the “r5-HT2C Emax” value [17, 21] was 104 ± 2%. For the same compound, the EC50 ([17]; read-out: r5-HT2C EC50, Ca2+ mobilization) was 192 nM, the “h5HT2C pEC50 ± SEM” value ([18]; Ca2+ mobilization) was 6.54 ± 0.10 and the “h5HT2C Emax” value [18, 21] was 75 ± 4%. It also gave an EC50 ([18]; read-out: h5HT2C EC50, Ca2+ mobilization) of 289 nM, a max counts ([19]; HTR counts, SC) of 14.6 and an active doses ([19]; SC, mouse head twitch) of 10 mg/kg. For the same compound, the “magnitude of peak effect × vehicle” value ([19]; SC, mouse head twitch) was 3.5 × vehicle, the maximally effective dose ([19]; SC, mouse head twitch) was 10 mg/kg and the “HTR at 30 mg/kg” value ([19]; biphasic bell-shaped dose–response, 30 mg/kg SC) was “inactive”.
